How the values were obtained:
Format in all cases: cell-based, Dermacentor variabilis
DvLGIC/GluCl 1 = experiment: Two-microelectrode voltage clamp of Xenopus oocytes injected with DvLGIC/GluCl 1 RNA
Text: (§1) Synthesis of in vitro transcribed capped RNA—A PCR strategy was used to add the T7 promoter upstream of the initiating methionine (ATG) and a polyA^+ tail following the stop codon (TAG) of the open reading frame (ORF) of clones DvLGIC/GluCl1, DvLGIC/GluCl 11, DvLGIC/GluCl 7-1 and DvLGIC/GluCl 10-2. Amplified ORFs which contained the flanking T7 promoter and polyA^+ tail were used directly as templates in the in vitro transcription reaction (mMessage mMachine™, Ambion, Austin, Tex.). After removal of DNA template, the volume was adjusted to 100 μl with nuclease free water, and RNA purified using a G-50 Sephadex Column (Boehringer Mannheim, Indianapolis, Ind.). The elutate was extracted with an equal volume of phenol/chloroform, followed with a second chloroform extraction, precipitated with isopropyl alcohol, and resuspended in nuclease-free water to a storage concentration of 1 μg/μl.
(§2) Xenopus laevis oocytes were prepared and injected using standard methods previously described [Arena, J. P., Liu, K. K., Paress, P. S. & Cully, D. F. Mol. Pharmacol. 40, 368-374 (1991); Arena, J. P., Liu, K. K., Paress, P. S., Schaeffer, J. M. & Cully, D. F., Mol. Brain Res. 15, 339-348 (1992)]. Adult female Xenopus laevis were anesthetized with 0.17% tricaine methanesulfonate and the ovaries were surgically removed and placed in a solution consisting of (mM): NaCl 82.5, KCl 2, MgCl2 1, HEPES 5, NaPyruvate 2.5, Penicillin G. 100,000 units/L, Streptomycin Sulfate 1000 mg/L, pH 7.5 (Mod. OR-2). Ovarian lobes were broken open, rinsed several times in Mod. OR-2, and incubated in 0.2% collagenase (Sigma, Type1) in Mod. OR-2 at room temperature with gentle shaking. After 1 hour the collagenase solution was renewed and the oocytes were incubated for an additional 30-90 min until approximately 50% of the oocytes were released from the ovaries. Stage V and VI oocytes were selected and placed in media containing (mM): NaCl 96, KCl 2, MgCl2 1, CaCl2 1.8, HEPES 5, NaPyruvate 2.5, theophylline 0.5, gentamicin […], pH 7.5 (ND-96) for 16-24 hours before injection. Oocytes were injected with 50 nl of DvLGIC/GluCl1 or DvLGIC/GluCl 7-1 RNA at a concentration of 0.2 mg/ml. Oocytes were incubated at 18° C. for 1-6 days in ND-96 before recording.
(§3) Recordings were made at room temperature in modified ND-96 consisting of (mM): NaCl 96, MgCl2 1, CaCl2 0.1, BaCl2 3.5, HEPES 5, pH 7.5. Oocytes were voltage clamped using a Dagan CA1 two microelectrode amplifier (Dagan Corporation, Minneapolis, Minn.) interfaced to a Macintosh 7100/80 computer. The current passing electrode was filled with 0.7 M KCl, 1.7 M KCitrate, and the voltage recording electrode was filled with 1 M KCl. Throughout the experiment oocytes were superfused with modified ND-96 (control solution) or with ND-96 containing potential channel activators and blockers at a rate of approximately 3 ml/min. Data were acquired at 100 Hz and filtered at 33.3 Hz using Pulse software from HEKA Elektronik (Lambrecht, Germany). All recordings were performed from a holding potential of either 0 or −30 mV.

DvLGIC/GluCl 7-1 = experiment: Two-microelectrode voltage clamp of Xenopus oocytes injected with DvLGIC/GluCl 7-1 RNA
Text: as §1, §2, §3

DvLGIC/GluCl 10-2 = DvLGIC/GluCl 10-2 expressed in Xenopus oocytes, current response; settings: concentration not given
Text: as §1
(§4) Xenopus laevis oocytes were prepared and injected using standard methods previously described [Arena, J. P., Liu, K. K., Paress, P. S. & Cully, D. F. Mol. Pharmacol. 40, 368-374 (1991); Arena, J. P., Liu, K. K., Paress, P. S., Schaeffer, J. M. & Cully, D. F., Mol. Brain Res. 15, 339-348 (1992)]. […]

DvLGIC/GluCl 11 = DvLGIC/GluCl 11 expressed in Xenopus oocytes, current response; settings: concentration not given
DvLGIC/GluCl 11, sequence (as listed by the source): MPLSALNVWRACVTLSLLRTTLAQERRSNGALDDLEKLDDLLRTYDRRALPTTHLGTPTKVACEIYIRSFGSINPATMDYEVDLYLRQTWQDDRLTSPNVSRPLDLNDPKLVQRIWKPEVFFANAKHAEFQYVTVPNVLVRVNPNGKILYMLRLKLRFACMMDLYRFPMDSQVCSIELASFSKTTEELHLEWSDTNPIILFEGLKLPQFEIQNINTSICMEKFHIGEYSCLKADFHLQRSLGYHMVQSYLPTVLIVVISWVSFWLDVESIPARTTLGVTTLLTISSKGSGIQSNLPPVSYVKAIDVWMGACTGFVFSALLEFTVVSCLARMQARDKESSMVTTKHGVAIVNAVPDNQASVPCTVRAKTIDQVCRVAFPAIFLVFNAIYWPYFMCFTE
Text: as §1, §4

[1] = 1 μM ivermectin phosphate, holding potential 0 or −30 mV
[2] = Xenopus oocytes, concentration not given
[3] = after 1 μM ivermectin phosphate

With `N[C@@H](CCC(=O)O)C(=O)O` [glutamate] the “current in response to application” value (DvLGIC/GluCl 1; 1 mM glutamate) was “did not activate a current”, the “current in response to application” value (DvLGIC/GluCl 7-1; 1 mM glutamate) was “did not activate a current” and the “responsiveness of the channel to the substance” value (DvLGIC/GluCl 10-2) was “not responsive”.
For ivermectin phosphate, the “current in response to application” value (DvLGIC/GluCl 1; [1]) was “slowly activating current”, the “concentration at which current activation was maximal” value (DvLGIC/GluCl 1; Xenopus oocytes injected with DvLGIC/GluCl 1 mRNA, FIG. 9) was 1 µM and the “current in response to addition” value (DvLGIC/GluCl 1; [2]) was “exhibit a current”. The “reversibility of current upon wash-out” value (DvLGIC/GluCl 1; [3]) was “irreversible”, the “current in response to application” value (DvLGIC/GluCl 7-1; [1]) was “slowly activating current” and the “concentration at which current activation was maximal” value (DvLGIC/GluCl 7-1; DvLGIC/GluCl 7-1 expressed in Xenopus oocytes, FIG. 10) was roughly 1 µM. The “current in response to addition” value (DvLGIC/GluCl 7-1; [2]) was “exhibit a current”, the “reversibility of current upon wash-out” value (DvLGIC/GluCl 7-1; [3]) was “irreversible” and the “current in response to addition” value (DvLGIC/GluCl 11) was “exhibit a current”. For the same molecule, the “responsiveness of the channel to the substance” value (DvLGIC/GluCl 10-2) was “not responsive”.
